Data as given in patent US20230055237A1, “COMPOUNDS AND METHODS FOR THE TREATMENT OF CYSTIC FIBROSIS” (Flatley Discovery Lab, LLC, priority 2019, published 2023).

Molecular target: T1, CFTR (Homo sapiens, UniProt P13569, DEL508-508)
T1 construct: Primary CF airway epithelial cells were obtained from the UNC Cystic Fibrosis Tissue Procurement and Cell Culture Core; host or cells: primary CF airway epithelial cells, differentiated at the air-liquid interface
Test: Equivalent current assay in primary CF airway epithelial cells (NAUC, combination with 1st site corrector FDL169 or VX-809)
Type: cell-based
Conditions: 37° C., 24 h; for Nauc @ 1 μM: test compound 1 μM in combination with 1st site corrector VX-809 (3 μM); for Nauc @ 3 μM: test compound 3 μM in combination with 1st site corrector VX-809 (3 μM); for Nauc @ 10 μM: test compound 10 μM in combination with 1st site corrector VX-809 (3 μM)

T1 sequence (P13569 with tags, fused parts or gaps DEL508-508): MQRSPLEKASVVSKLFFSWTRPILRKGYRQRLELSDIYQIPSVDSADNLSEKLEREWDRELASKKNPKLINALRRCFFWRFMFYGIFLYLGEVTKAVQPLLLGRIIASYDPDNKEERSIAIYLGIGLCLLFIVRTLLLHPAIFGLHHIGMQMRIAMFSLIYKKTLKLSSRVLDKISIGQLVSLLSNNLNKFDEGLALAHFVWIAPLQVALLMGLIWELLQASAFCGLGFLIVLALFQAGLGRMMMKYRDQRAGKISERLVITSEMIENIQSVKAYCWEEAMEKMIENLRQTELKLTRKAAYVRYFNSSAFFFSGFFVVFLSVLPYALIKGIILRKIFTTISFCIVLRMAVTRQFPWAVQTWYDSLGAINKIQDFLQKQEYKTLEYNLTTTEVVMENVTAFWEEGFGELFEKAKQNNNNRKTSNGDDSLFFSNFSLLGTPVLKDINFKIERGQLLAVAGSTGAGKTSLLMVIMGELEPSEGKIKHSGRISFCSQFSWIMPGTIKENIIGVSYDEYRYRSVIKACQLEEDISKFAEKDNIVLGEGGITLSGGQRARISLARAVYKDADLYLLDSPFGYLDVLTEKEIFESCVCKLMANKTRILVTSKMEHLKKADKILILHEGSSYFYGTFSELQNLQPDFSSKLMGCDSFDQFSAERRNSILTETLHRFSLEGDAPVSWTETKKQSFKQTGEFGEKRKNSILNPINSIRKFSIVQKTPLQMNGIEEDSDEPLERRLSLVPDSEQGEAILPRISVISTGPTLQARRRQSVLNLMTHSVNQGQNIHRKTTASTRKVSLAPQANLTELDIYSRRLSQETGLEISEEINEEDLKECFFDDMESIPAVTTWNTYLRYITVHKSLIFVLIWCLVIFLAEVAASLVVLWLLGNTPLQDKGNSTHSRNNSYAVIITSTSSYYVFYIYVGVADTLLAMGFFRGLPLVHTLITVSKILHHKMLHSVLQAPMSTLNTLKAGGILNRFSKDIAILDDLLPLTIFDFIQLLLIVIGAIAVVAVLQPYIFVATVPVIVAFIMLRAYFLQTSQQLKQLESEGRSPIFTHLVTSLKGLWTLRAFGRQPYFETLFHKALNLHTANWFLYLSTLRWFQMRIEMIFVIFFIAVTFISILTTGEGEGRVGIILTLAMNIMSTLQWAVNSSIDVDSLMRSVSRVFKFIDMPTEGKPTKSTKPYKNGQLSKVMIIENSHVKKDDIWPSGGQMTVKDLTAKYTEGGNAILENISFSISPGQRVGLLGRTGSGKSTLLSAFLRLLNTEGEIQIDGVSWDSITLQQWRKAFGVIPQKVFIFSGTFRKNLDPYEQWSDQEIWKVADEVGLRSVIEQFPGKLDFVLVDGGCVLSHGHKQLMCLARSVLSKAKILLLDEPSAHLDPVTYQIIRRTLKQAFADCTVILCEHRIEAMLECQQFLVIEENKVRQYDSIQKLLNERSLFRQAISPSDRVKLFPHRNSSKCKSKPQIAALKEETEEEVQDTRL

Row | Compound | Nauc @ 1 μM | Nauc @ 3 μM | Nauc @ 10 μM
1 | O=C(Nc1cc(Cl)cc(Cl)c1)C1C2CC(F)(F)CN2C2(C(=O)Nc3c(Cl)cc(Cl)cc32)C1C(=O)NO (single isomer, unassigned) [Example 226b, 5,7-dichloro-N1′-(3,5-dichlorophenyl)-6′,6′-difluoro-N2′-hydroxy-2-oxo-1′,2′,5′,6′,7′,7a′-hexahydrospiro[indoline-3,3′-pyrrolizine]-1′,2′-dicarboxamide] | + (NAUC “+” refers to an observed NAUC <140% of positive control) | +++ (NAUC “+++” refers to an observed NAUC>170% of positive control) | +++ (NAUC “+++” refers to an observed NAUC>170% of positive control)
2 | CN(O)C(=O)C1C(C(=O)N(C)c2cc(Cl)cc(Cl)c2)C2CC(F)(F)CN2C12C(=O)Nc1c(Cl)cc(Cl)cc12 (single isomer, unassigned) [Example 229b, 5,7-dichloro-N1′-(3,5-dichlorophenyl)-6′,6′-difluoro-N2′-hydroxy-N1′,N2′-dimethyl-2-oxo-1′,2′,5′,6′,7′,7a′-hexahydrospiro[indoline-3,3′-pyrrolizine]-1′,2′-dicarboxamide] |  |  | + (NAUC “+” refers to an observed NAUC <140% of positive control)
3 | CN(C(=O)[C@H]1[C@@H](C(=O)NCC(F)(F)F)[C@]2(C(=O)Nc3c(Cl)cc(Cl)cc32)N2CC(F)(F)C[C@@H]12)c1cc(Cl)cc(Cl)c1 (single isomer, unassigned) [Example 232a] | + (NAUC “+” refers to an observed NAUC <140% of positive control) | + (NAUC “+” refers to an observed NAUC <140% of positive control) | + (NAUC “+” refers to an observed NAUC <140% of positive control)
4 | CN(C(=O)[C@H]1[C@H]2CC(F)(F)CN2[C@]2(C(=O)Nc3c(Cl)cc(Cl)cc32)[C@H]1C(=O)NCC(F)(F)F)c1cc(Cl)cc(Cl)c1 (single isomer, unassigned) [Example 232b] | + (NAUC “+” refers to an observed NAUC <140% of positive control) | + (NAUC “+” refers to an observed NAUC <140% of positive control) | + (NAUC “+” refers to an observed NAUC <140% of positive control)
5 | O=C(Nc1cc(Cl)cc(Cl)c1)C1C2CCCN2C2(C(=O)Nc3c(Cl)cc(Cl)cc32)C1C(=O)NO (single isomer, unassigned) [Example 234a, 5,7-dichloro-N1′-(3,5-dichlorophenyl)-N2′-hydroxy-2-oxo-1′,2′,5′,6′,7′,7a′-hexahydrospiro[indoline-3,3′-pyrrolizine]-1,2′-dicarboxamide] | ++ (NAUC “++” refers to an observed NAUC 170-140% of positive control) | ++ (NAUC “++” refers to an observed NAUC 170-140% of positive control) | ++ (NAUC “++” refers to an observed NAUC 170-140% of positive control)
6 | O=C(Nc1cc(Cl)cc(Cl)c1)C1C2CCCN2C2(C(=O)Nc3c(Cl)cc(Cl)cc32)C1C(=O)NO (single isomer, unassigned) [Example 234b, 5,7-dichloro-N1′-(3,5-dichlorophenyl)-N2′-hydroxy-2-oxo-1′,2′,5′,6′,7′,7a′-hexahydrospiro[indoline-3,3′-pyrrolizine]-1,2′-dicarboxamide] | + (NAUC “+” refers to an observed NAUC <140% of positive control) | ++ (NAUC “++” refers to an observed NAUC 170-140% of positive control) | +++ (NAUC “+++” refers to an observed NAUC>170% of positive control)
7 | CN(O)C(=O)C1C(C(=O)Nc2cc(Cl)cc(Cl)c2)C2CCCN2C12C(=O)Nc1c(Cl)cc(Cl)cc12 (single isomer, unassigned) [Example 235a, 5,7-dichloro-N1′-(3,5-dichlorophenyl)-N2′-hydroxy-N2′-methyl-2-oxo-1′,2′,5′,6′,7′,7a′-hexahydrospiro[indoline-3,3′-pyrrolizine]-1′,2′-dicarboxamide] | ++ (NAUC “++” refers to an observed NAUC 170-140% of positive control) | +++ (NAUC “+++” refers to an observed NAUC>170% of positive control) | +++ (NAUC “+++” refers to an observed NAUC>170% of positive control)
8 | CN(O)C(=O)C1C(C(=O)Nc2cc(Cl)cc(Cl)c2)C2CCCN2C12C(=O)Nc1c(Cl)cc(Cl)cc12 (single isomer, unassigned) [Example 235b, 5,7-dichloro-N1′-(3,5-dichlorophenyl)-N2′-hydroxy-N2′-methyl-2-oxo-1′,2′,5′,6′,7′,7a′-hexahydrospiro[indoline-3,3′-pyrrolizine]-1′,2′-dicarboxamide] | +++ (NAUC “+++” refers to an observed NAUC>170% of positive control) | +++ (NAUC “+++” refers to an observed NAUC>170% of positive control) | +++ (NAUC “+++” refers to an observed NAUC>170% of positive control)
9 | Cn1cnc(NC(=O)[C@H]2[C@@H](C(=O)Nc3cc(Cl)cc(Cl)c3)[C@H]3CCCN3[C@]23C(=O)Nc2c(Cl)cc(Cl)cc23)c1 (single isomer, unassigned) [Example 237, (1′R,2′S,7a′R)-5,7-dichloro-N1′-(3,5-dichlorophenyl)-N2′-(1-methyl-1H-imidazol-4-yl)-2-oxo-1′,2′,5′,6′,7′,7a′-hexahydrospiro[indoline-3,3′-pyrrolizine]-1′,2′-dicarboxamide] | + (NAUC “+” refers to an observed NAUC <140% of positive control) | + (NAUC “+” refers to an observed NAUC <140% of positive control) | ++ (NAUC “++” refers to an observed NAUC 170-140% of positive control)
10 | Cn1ccnc1NC(=O)[C@H]1[C@@H](C(=O)Nc2cc(Cl)cc(Cl)c2)[C@H]2CCCN2[C@]12C(=O)Nc1c(Cl)cc(Cl)cc12 (single isomer, unassigned) [Example 238, (1′R,2′S,7a′R)-5,7-dichloro-N1′-(3,5-dichlorophenyl)-N2′-(1-methyl-1H-imidazol-2-yl)-2-oxo-1′,2′,5′,6′,7′,7a′-hexahydrospiro[indoline-3,3′-pyrrolizine]-1′,2′-dicarboxamide] | + (NAUC “+” refers to an observed NAUC <140% of positive control) | + (NAUC “+” refers to an observed NAUC <140% of positive control) | 
11 | Cn1nccc1NC(=O)[C@H]1[C@@H](C(=O)Nc2cc(Cl)cc(Cl)c2)[C@H]2CCCN2[C@]12C(=O)Nc1c(Cl)cc(Cl)cc12 (single isomer, unassigned) [Example 239, (1′R,2′ S,7a′R)-5,7-dichloro-N1′-(3,5-dichlorophenyl)-N2′-(1-methyl-1H-pyrazol-5-yl)-2-oxo-1′,2′,5′,6′,7′,7a′-hexahydrospiro[indoline-3,3′-pyrrolizine]-1′,2′-dicarboxamide] | + (NAUC “+” refers to an observed NAUC <140% of positive control) | + (NAUC “+” refers to an observed NAUC <140% of positive control) | + (NAUC “+” refers to an observed NAUC <140% of positive control)
